Patent US12568972B2, “Pyridazinol compounds and derivatives, preparation methods, herbicidal compositions and applications thereof” (Qingdao Kingagroot Chemical Compound Co., Ltd., priority 2018, dated 2026)

Assays:
Assay in all cases: Post-emergence test, weed control effect
Assay type in all cases: in vivo
Conditions in all cases: after 3 weeks
Amaranthus retroflexus = system: Amaranthus retroflexus
Outline: (§1)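 Greenhouse pots, soil-sown, 0.5-2 cm cover; foliar spray at 2-3 leaf stage (2-3 wk post-sowing); cpd in acetone + Tween-80, water-diluted, + 80% veg. oil methyl ester synergist 1500 g/ha; 3 wk culture; fresh-wt inhibition graded 0-10.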

Rorippa indica = system: Rorippa indica
Outline: as §1

Chenopodiaceae = system: Chenopodiaceae
Outline: as §1

Veronica polita = system: Veronica polita
Outline: as §1

Row | Compound | weed control effect, Amaranthus retroflexus (activity level) (Amaranthus retroflexus; Dose 3000 g/ha) | weed control effect, Rorippa indica (activity level) (Rorippa indica; Dose 3000 g/ha) | weed control effect, Chenopodiaceae (activity level) (Chenopodiaceae; Dose 3000 g/ha) | weed control effect, Veronica polita (activity level) (Veronica polita; Dose 3000 g/ha) | weed control effect (activity level), Amaranthus retroflexus (Amaranthus retroflexus; Dose 3000 g/ha) | weed control effect (activity level), Rorippa indica (Rorippa indica; Dose 3000 g/ha) | weed control effect (activity level), Chenopodiaceae (Chenopodiaceae; Dose 3000 g/ha) | weed control effect (activity level), Veronica polita (Veronica polita; Dose 3000 g/ha) | also measured
1 | CC(C)c1ccc(-c2nnc(C(F)(F)F)cc2O)cc1 [Compound 8] | – | – | – | – | – | – | – | – | weed control effect (activity level), Amaranthus retroflexus (Amaranthus retroflexus; dose 2000 g/ha): 10; weed control effect (activity level), Rorippa indica (Rorippa indica; dose 2000 g/ha): 10; weed control effect (activity level), Chenopodiaceae (Chenopodiaceae; dose 2000 g/ha): 8 (Level 8: above 80% growth inhibition rate); weed control effect (activity level), Veronica polita (Veronica polita; dose 2000 g/ha): 10
2 | O=C(Oc1cc(C(F)(F)F)nnc1-c1ccccc1)c1ccc2occc2c1 [Compound 1-117] | 10 | 10 | 10 | 10 | – | – | – | – | –
3 | Cc1ccc(-c2nnc(C(F)(F)F)cc2OC(=O)c2ccccc2C)cc1 [Compound 1-80] | 10 | 10 | 10 | 10 | – | – | – | – | –
4 | Cc1ccc(-c2nnc(C(F)(F)F)cc2O)cn1 [Compound 974] | – | – | – | – | 10 | 10 | 10 | 10 | –
5 | COc1c(Cl)ccc(-c2nnc(C(F)(F)F)cc2O)c1F [Compound 741] | – | – | – | – | 10 | 10 | 10 | 10 | –
6 | N#Cc1ccc(-c2nnc(C(F)(F)F)cc2O)s1 [Compound 873] | – | – | – | – | 10 | 10 | 10 | 10 | –
7 | Cn1ncc(C2CC2)c1-c1nnc(C(F)(F)F)cc1O [Compound 810] | – | – | – | – | 10 | 10 | 10 | 10 | –
8 | CCOC(=O)Oc1cc(C(F)(F)F)nnc1-c1ccc(F)c(F)c1 [Compound 1-26] | 10 | 10 | 10 | 10 | – | – | – | – | –
9 | N#Cc1ccc(-c2nnc(C(F)(F)F)cc2O)cn1 [Compound 983] | – | – | – | – | 10 | 10 | 10 | 10 | –
10 | CCCCCCCSC(=O)Oc1cc(C(F)(F)F)nnc1-c1ccc(Cl)c(Cl)c1 [Compound 1-53] | 10 | 10 | 10 | 10 | – | – | – | – | –
11 | O=S(=O)(Oc1cc(C(F)(F)F)nnc1-c1ccccc1)c1cc(Cl)c(Cl)cc1Cl [Compound 1-136] | 10 | 10 | 10 | 10 | – | – | – | – | –
12 | O=C(Oc1cc(C(F)(F)F)nnc1-c1ccc(Cl)c(Cl)c1)Sc1ccccc1 [Compound 1-102] | 10 | 10 | 10 | 10 | – | – | – | – | –
13 | Oc1cc(C(F)(F)F)nnc1-c1cnc(F)c(F)c1 [Compound 988] | – | – | – | – | 10 | 10 | 10 | 10 | –
14 | O=S(=O)(Oc1cc(C(F)(F)F)nnc1-c1ccc(F)c(Cl)c1)c1ccc(Oc2ccc(F)cc2)cc1 [Compound 1-142] | 10 | 10 | 10 | 10 | – | – | – | – | –
15 | Cn1nc(Br)cc1-c1nnc(C(F)(F)F)cc1O [Compound 777] | – | – | – | – | 10 | 10 | 10 | 10 | –
16 | N#Cc1ccncc1-c1nnc(C(F)(F)F)cc1O [Compound 980] | – | – | – | – | 10 | 10 | 10 | 10 | –
17 | Cc1cccc(C2CC2)c1-c1nnc(C(F)(F)F)cc1O [Compound 735] | – | – | – | – | – | – | – | – | weed control effect (activity level), Amaranthus retroflexus (Amaranthus retroflexus; dose 1000 g/ha): 10; weed control effect (activity level), Rorippa indica (Rorippa indica; dose 1000 g/ha): 10; weed control effect (activity level), Chenopodiaceae (Chenopodiaceae; dose 1000 g/ha): 10; weed control effect (activity level), Veronica polita (Veronica polita; dose 1000 g/ha): 10
18 | CCc1cc(C(F)(F)F)cc(-c2nnc(C(F)(F)F)cc2O)c1C#N [Compound 163] | – | – | – | – | – | – | – | – | weed control effect (activity level), Amaranthus retroflexus (Amaranthus retroflexus; dose 2000 g/ha): 10; weed control effect (activity level), Rorippa indica (Rorippa indica; dose 2000 g/ha): 10; weed control effect (activity level), Chenopodiaceae (Chenopodiaceae; dose 2000 g/ha): 10; weed control effect (activity level), Veronica polita (Veronica polita; dose 2000 g/ha): 10
19 | Fc1ccc(-c2nnc(C(F)(F)F)cc2Oc2ccccc2)cc1F [Compound 1-208] | 10 | 10 | 10 | 10 | – | – | – | – | –
20 | Oc1cc(C(F)(F)F)nnc1-c1cccc(C(F)(F)F)c1F [Compound 761] | – | – | – | – | 10 | 10 | 10 | 10 | –
21 | CSCCC(=O)Oc1cc(C(F)(F)F)nnc1-c1ccc(F)c(F)c1 [Compound 1-77] | 10 | 10 | 10 | 10 | – | – | – | – | –
22 | O=C(Oc1cc(C(F)(F)F)nnc1-c1ccc(F)c(F)c1)N1CCOCC1 [Compound 1-66] | 10 | 10 | 10 | 10 | – | – | – | – | –
